Where a name gives a salt, the structure may show the parent alone.

Assay [1] has as its system complement in pool of guinea pig serum. The assay can be described thus: Cap 50 Test (undiluted serum capillary tube assay). The format is biochemical. As to the method:
(§1) An active inhibitor protects C2 from C1 and C4; (ii) Cap 50 Test Here, appropriate amounts of the test compound are added to a pool of guinea pig serum in vitro, after which the undiluted serum capillary tube assay of U.S. Pat. No. 3,876,376 is run. The concentration of compound inhibiting 50% is reported; and (iii) Guinea Pig Intraperitoneal Test (GPIP)--Guinea pigs weighing about 300 g are dosed intraperitoneally (i.p.) with 200 mg kg of the test compound dissolved in saline and adjusted to pH 7-8. Approximately 0.4 ml blood samples, taken by orbital sinus puncture 2 hours and 6 hours after injections, are collected directly into centrifuge tubes; 5 ml blood samples, taken by decapitation 24 hours after injection, are collected directly into beakers. The samples are allowed to clot, centrifuged, and the resultant sera are assayed for complement activity using the capillary complement assay. Percent inhibition are calculated by comparison with simultaneous controls. The results of the GPIP appear in Table I together with results of Test Code 026 and Cap 50.

Assay [2] has as its system serum complement activity. Description: Guinea Pig Intraperitoneal Test (GPIP). Particulars: 200 mg kg i.p., versus simultaneous controls. The assay is classed as in vivo. How it is done:
as §1

Assay [3] addresses T1, activated human C1 (Homo sapiens, UniProt P09871).
T1 sequence (P09871 438-688 limits assumed): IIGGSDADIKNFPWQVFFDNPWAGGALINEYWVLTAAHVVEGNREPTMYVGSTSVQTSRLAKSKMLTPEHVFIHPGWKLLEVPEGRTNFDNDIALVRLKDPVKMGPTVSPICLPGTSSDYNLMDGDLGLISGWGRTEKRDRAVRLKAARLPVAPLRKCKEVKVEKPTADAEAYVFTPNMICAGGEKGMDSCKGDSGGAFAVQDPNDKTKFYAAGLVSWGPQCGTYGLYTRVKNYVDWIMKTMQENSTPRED
T1 sequence (P09871 16-437 limits assumed): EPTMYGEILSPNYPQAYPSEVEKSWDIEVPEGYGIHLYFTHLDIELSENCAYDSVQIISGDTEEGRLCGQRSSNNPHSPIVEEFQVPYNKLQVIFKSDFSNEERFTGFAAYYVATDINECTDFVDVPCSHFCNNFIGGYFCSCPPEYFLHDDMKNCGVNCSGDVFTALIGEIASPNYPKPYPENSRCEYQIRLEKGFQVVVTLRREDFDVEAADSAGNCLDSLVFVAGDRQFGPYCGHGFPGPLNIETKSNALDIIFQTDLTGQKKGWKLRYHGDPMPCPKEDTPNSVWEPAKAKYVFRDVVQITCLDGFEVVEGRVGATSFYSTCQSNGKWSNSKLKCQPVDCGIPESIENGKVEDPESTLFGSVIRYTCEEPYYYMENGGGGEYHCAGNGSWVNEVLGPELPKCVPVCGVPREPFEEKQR
Description: Test Code 026 (C1 inhibitor). The assay is classed as biochemical. Particulars: serial twofold dilution assay; higher well number indicates higher activity; protection of human C2 from C1 in presence of C4. How it is done: as §1

As for `O=C(C=Cc1ccc(OS(=O)(=O)O)c(OS(=O)(=O)O)c1)N[C@@H]1O[C@H](COS(=O)(=O)O)[C@@H](O[C@H]2O[C@H](COS(=O)(=O)O)[C@@H](OS(=O)(=O)O)[C@H](OS(=O)(=O)O)[C@H]2OS(=O)(=O)O)[C@H](OS(=O)(=O)O)[C@H]1OS(=O)(=O)O` [N-(4-O-α-D-Glucopyranosyl-β-D-glucopyranosyl)-3,4-dihydroxycinnamamide, nonakis (H-sulfate), (nonaester), nonasodium salt], in assay [1], the “In vitro Activity Cap 50 (concentration of compound inhibiting 50%)” value is 304. In addition, in assay [2] (serum 2 hours after injection), the “In vivo Activity (Guinea pig % Inhibition) Intraperitoneal, 2 hours” value is listed as 63 % Inhibition. In addition, the “In vivo Activity (Guinea pig % Inhibition) Intraperitoneal, 6 hours” value in assay [2] (serum 6 hours after injection) came out at 17 % Inhibition. In assay [2] (serum 24 hours after injection), the “In vivo Activity (Guinea pig % Inhibition) Intraperitoneal, 24 hours” value came to 2 % Inhibition. Further, the “In vitro Activity C1 026 Wells” value in assay [3] is listed as 8 (9) Wells.

The values above are taken from US4337249A, “Modulators of the complement system” (American Cyanamid Company, priority 1981, dated 1982).
